One experiment deals with T1, zfSARM1 (Danio rerio, UniProt F1QWA8).
T1 sequence (F1QWA8 1-713): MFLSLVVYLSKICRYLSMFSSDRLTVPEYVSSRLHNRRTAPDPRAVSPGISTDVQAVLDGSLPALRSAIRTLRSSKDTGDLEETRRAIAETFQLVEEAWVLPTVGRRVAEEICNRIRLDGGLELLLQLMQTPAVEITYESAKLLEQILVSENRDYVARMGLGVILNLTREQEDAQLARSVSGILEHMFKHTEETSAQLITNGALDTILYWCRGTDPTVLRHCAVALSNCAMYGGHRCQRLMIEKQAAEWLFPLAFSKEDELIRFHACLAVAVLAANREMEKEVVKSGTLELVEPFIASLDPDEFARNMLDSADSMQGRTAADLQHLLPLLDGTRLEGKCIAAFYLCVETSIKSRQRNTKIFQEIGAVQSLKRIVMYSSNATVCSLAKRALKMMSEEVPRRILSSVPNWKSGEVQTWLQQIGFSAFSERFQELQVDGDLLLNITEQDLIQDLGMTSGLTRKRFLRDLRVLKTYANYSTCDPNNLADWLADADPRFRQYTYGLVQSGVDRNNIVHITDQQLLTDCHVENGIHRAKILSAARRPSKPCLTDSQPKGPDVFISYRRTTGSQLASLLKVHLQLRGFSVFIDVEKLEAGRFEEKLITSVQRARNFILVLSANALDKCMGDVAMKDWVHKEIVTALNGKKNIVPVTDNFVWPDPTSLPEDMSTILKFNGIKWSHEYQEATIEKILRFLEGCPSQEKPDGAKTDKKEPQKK
In words: Effect of hSARM1 inhibitors on zfSARM1 NADase activity (ADPR by HPLC). Format: biochemical, Zebrafish. The settings on record: 50 μM NAD+; ADPR production by HPLC.

For another experiment, the target named is T2, hSARM1 (Homo sapiens, UniProt Q6SZW1).
T2 construct: hSARM1w.t; (26ERL . . . GPT724) that was not mutated in E642, was also expressed and isolated; 6xHis (N); TEV cleavage site (N); made in house; host or cells: HEK293F suspension cells
T2 sequence (Q6SZW1 with tags, fused parts or gaps): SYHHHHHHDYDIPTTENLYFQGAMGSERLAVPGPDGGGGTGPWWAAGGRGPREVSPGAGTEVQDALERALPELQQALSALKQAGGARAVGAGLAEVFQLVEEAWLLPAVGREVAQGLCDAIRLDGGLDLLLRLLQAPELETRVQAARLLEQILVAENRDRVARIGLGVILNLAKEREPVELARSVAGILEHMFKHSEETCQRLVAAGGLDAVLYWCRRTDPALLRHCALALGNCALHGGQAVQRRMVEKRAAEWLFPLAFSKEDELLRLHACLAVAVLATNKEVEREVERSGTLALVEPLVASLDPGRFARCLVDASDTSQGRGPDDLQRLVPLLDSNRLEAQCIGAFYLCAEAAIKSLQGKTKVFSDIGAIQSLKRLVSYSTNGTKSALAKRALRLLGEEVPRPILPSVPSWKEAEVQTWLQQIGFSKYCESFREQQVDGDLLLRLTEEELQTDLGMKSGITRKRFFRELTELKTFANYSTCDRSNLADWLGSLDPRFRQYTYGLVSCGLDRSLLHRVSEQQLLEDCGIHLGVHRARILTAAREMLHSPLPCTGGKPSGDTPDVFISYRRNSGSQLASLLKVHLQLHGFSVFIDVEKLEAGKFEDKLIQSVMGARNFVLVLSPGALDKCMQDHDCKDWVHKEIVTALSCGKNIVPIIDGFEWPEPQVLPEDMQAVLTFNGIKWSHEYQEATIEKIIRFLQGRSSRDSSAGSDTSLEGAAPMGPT
The experiment is described as follows: High-throughput resazurin fluorescence inhibitor screen. Format: biochemical. To be noted: 1 mM NAM; pre-incubation 10 minutes at room temperature. The procedure:
The high-throughput inhibitor-screening assay was preformed using the MultiDrop 384 microplate dispenser (Thermo Scientific) and 1536-well black/black non-binding Microplates (Greiner Bio-One).
First, 10 nano-liters of each of the 142000 screened compounds, solubilized in DMSO, were plated using Echo® 550 Liquid Handler (Sunny vale, CA, USA). Then. 5 micro liters of purified SARM1 (at 50 Nano-Molar concentration) in 25 mM HEPES pH 7.5, 150 mM NaCl were added to each well for 10 minutes incubation in 25° C. Next, 2.5 Micro Liters of NAD+(in 0.25 Micro-Molar concentration, in 25 mM HEPES pH 7.5, 150 mM NaCl) were added to each well and incubated for 70 min at 37° C. The compounds concentration at this point were […].
Measurement of NAD+ concentrations were made by a modified enzymatic coupled cycling assay. […] Fluorescent signals were measured by PheraStar FS plate reader (BMG Labtech, Ortenberg, Germany) at 540-nm excitation and 590-nm emission wavelengths. […]
To discover new and effective inhibitors for hSARM1, we have applied a modified fluorescence assay for high throughput screening. The adaptations introduced in this assay aim to achieve: stable fluorescent signal over time, good sensitivity for inhibition by screened compounds, high signal-to-noise, good reproducibility, accuracy, and diminishing of false-positive readouts. […]
Background: The colour change of resazurin is a common sign of viable cells or microbes.

Here are results for one compound from patent publication US20220241416A1, “METHODS FOR THE IDENTIFICATION OF SARM1 NADASE ACTIVITY INHIBITORS AND USES THEREOF” (Bar Ilan University, priority 2021, published 2022).

By IC50 is commonly meant the concentration at which inhibition is half-maximal.

With `NC(=O)c1cccnc1` [NAM, nicotinamide, reference compound], inhibition against zfSARM1 was half-maximal at 227 µM (IC50). Besides, the “fluorescence output response” value at hSARM1 is recorded as “hSARM1 inhibition”.
